Tested on: human platelets
Experiment: suppressive activity on ADP aggregation of human platelets
Assay type: cell-based
Conditions: platelet rich plasma, ADP 1-5 μM, compound added 2 minutes before ADP, read-out: Suppression of platelet aggregation (IC50)
Experimental: Determination of suppressive activity on ADP aggregation of human platelets
Platelet rich plasma was prepared from the blood taken from healthy humans by centrifugation in the presence of 0.38% sodium citrate, and used for the determination.
Two minutes after the test compounds shown in Table 1 were added to the above-mentioned platelet rich plasma, ADP (adenosine-5'-diphosphate) (1-5 μM) having a concentration at which primary aggregation alone is observed was added, and the suppression of ADP aggregation by the compounds was evaluated. The percent suppression was determined by varying the concentration of the compounds and the concentration of the compound at which the aggregation was suppressed by 50% (IC50) was calculated, which was taken as the activity of the compound.

SMILES: N=C(NCc1ccccc1)c1ccc2oc(C(=O)Nc3ccc(OCC(=O)O)cc3)cc2c1 [Compound 5, 4-[(5-Benzylamidino-2-benzofuranyl)carbonylamino]phenoxy-acetic acid]
- IC50: 100 nM

SMILES: N=C(N)c1ccc2oc(C(=O)Nc3ccc(OCC(=O)O)cc3)cc2c1 [Compound 10, 4-[(5-Amidino-2-benzofuranyl)carbonylamino]phenoxyacetic acid]
- IC50: 30 nM

SMILES: N=C(N)c1ccc2cc(C(=O)Nc3ccc(OCC(=O)O)cc3)oc2c1 [Compound 12, 4-[(6-Amidino-2-benzofuranyl)carbonylamino]phenoxyacetic acid]
- IC50: 230 nM

SMILES: Cc1c(C(=O)Nc2ccc(OCC(=O)O)cc2)oc2ccc(C(=N)N)cc12 [Compound 16, 4-[(5-Amidino-3-methyl-2-benzofuranyl)carbonylamino]phenoxyacetic acid]
- IC50: 40 nM

SMILES: CN(C(=O)c1cc2cc(C(=N)N)ccc2o1)c1ccc(OCC(=O)O)cc1 [Compound 21, 4-[(5-Amidino-2-benzofuranyl)carbonyl-N-methylamino]phenoxyacetic acid]
- IC50: 100 nM

SMILES: N=C(N)c1ccc2oc(C(=O)Nc3ccc(OCC(=O)O)c(OCC(=O)O)c3)cc2c1 [Compound 29, [[4-[(5-Amidino-2-benzofuranyl)carbonylamino]-o-phenylene]dioxy]diacetic acid]
- IC50: 30 nM

SMILES: COC(=O)CCc1ccc(NC(=O)c2cc3cc(C(=N)N)ccc3o2)cc1 [Compound 35, Methyl 3-[4-[(5-amidino-2-benzofuranyl)carbonylamino]phenyl]propionate]
- IC50: 500 nM

SMILES: N=C(N)c1ccc2oc(C(=O)Nc3ccc(CCC(=O)O)cc3)cc2c1 [Compound 37, 3-[4-[(5-Amidino-2-benzofuranyl)carbonylamino]phenyl]propionate]
- IC50: 40 nM

SMILES: N=C(N)c1ccc2oc(C(=O)Nc3ccc(C[C@H](N)C(=O)O)cc3)cc2c1 [Compound 46, (S)-3-[4 [(5-Amidino-2-benzofuranyl)carbonylamino]phenyl]-2-aminopropionic acid]
- IC50: 60 nM

SMILES: CCCCS(=O)(=O)NC(Cc1ccc(NC(=O)c2cc3cc(C(=N)N)ccc3o2)cc1)C(=O)O (stereo not shown) [Compound 48, 3-[4-[(5-Amidino-2-benzofuranyl)carbonylamino]phenyl]-2-(n-butylsulfonylamino)propionic acid]
- IC50: 10 nM

SMILES: N=C(N)c1ccc2oc(C(=O)Nc3ccc(C[C@H](NS(=O)(=O)C(F)(F)F)C(=O)O)cc3)cc2c1 [Compound 55, (S)-3-[4-[(5-Amidino-2-benzofuranyl)carbonylamino]phenyl]-2-(trifluoromethylsulfonylamino)propionic acid]
- IC50: 70 nM

SMILES: N=C(N)c1ccc2oc(C(=O)Nc3ccc(C[C@H](NC(=O)COC4CCNCC4)C(=O)O)cc3)cc2c1 [Compound 56, (S)-3-[4-[(5-Amidino-2-benzofuranyl)carbonylamino]phenyl]2-[(4-piperidinyloxy)acetylamino]propionic acid]
- IC50: 30 nM

SMILES: COc1ccc(CCC(=O)N[C@@H](Cc2ccc(NC(=O)c3cc4cc(C(=N)N)ccc4o3)cc2)C(=O)O)cc1 [Compound 61, (S)-3-[4-[(5-Amidino-2-benzofuranyl)carbonylamino]phenyl]-2-[3-(4-methoxyphenyl)propionylamino]propionic acid]
- IC50: 30 nM

SMILES: N=C(N)c1ccc2oc(C(=O)Nc3ccc(NCC(=O)O)cc3)cc2c1 [Compound 70, [4-[(5-Amidino-2-benzofuranyl)carbonylamino]anilino]acetic acid]
- IC50: 150 nM

SMILES: CCCCC(=O)N(CC(=O)O)c1ccc(NC(=O)c2cc3cc(C(=N)N)ccc3o2)cc1 [Compound 74, [4-[(5-Amidino-2-benzofuranyl)carbonylamino]-N-(n-valeryl)anilino]acetic acid]
- IC50: 230 nM

SMILES: N=C(N)c1ccc2cc(C(=O)Nc3ccc(OCC(=O)O)cc3)[nH]c2c1 [Compound 95, 4-[(6-Amidino-2-indolyl)carbonylamino]phenoxyacetic acid]
- IC50: 60 nM

SMILES: Cn1c(C(=O)Nc2ccc(OCC(=O)O)cc2)cc2ccc(C(=N)N)cc21 [Compound 118, 4-[(6-Amidino-1-methyl-2-indolyl)carbonylamino]phenoxyacetic acid]
- IC50: 200 nM

SMILES: N=C(N)c1ccc2sc(C(=O)Nc3ccc(OCC(=O)O)cc3)cc2c1 [Compound 134, 4-[(5-Amidinobenzo[b]thien-2-yl)carbonylamino]phenoxyacetic acid]
- IC50: 700 nM

SMILES: N=C(N)c1ccc2cc(C(=O)Nc3ccc(OCC(=O)O)cc3)sc2c1 [Compound 135, 4-[(6-Amidinobenzo[b]thien-2-yl)carbonylamino]phenoxyacetic acid]
- IC50: 20 nM

SMILES: N=C(N)c1ccc2oc(C(=O)OC3CCC(OCC(=O)O)CC3)cc2c1 (stereo not shown) [Compound 152, [4-[(5-Amidino-2-benzofuranyl)carbonyloxy]cyclohexyloxy]acetic acid]
- IC50: 80 nM

SMILES: CCOC(=O)CC[C@H]1CC[C@H](NC(=O)c2cc3cc(C(=N)N)ccc3o2)CC1 [Compound 159]
- IC50: 70 nM

SMILES: N=C(N)c1ccc2oc(C(=O)N[C@H]3CC[C@H](CCC(=O)OCCO)CC3)cc2c1 [Compound 163, 2-Hydroxyethyl trans-3-[4-[(5-amidino-2-benzofuranyl)carbonylamino]cyclohexyl]propionate]
- IC50: 450 nM

SMILES: N=C(N)c1ccc2oc(C(=O)N[C@H]3CC[C@H](OCC(=O)OCCO)CC3)cc2c1 [Compound 164, 2-Hydroxyethyl trans-[4-[(5-amidino-2-benzofuranyl)carbonylamino]cyclohexyloxy]acetate]
- IC50: 180 nM

SMILES: N=C(N)c1ccc2oc(C(=O)NC3CCC(CCC(=O)O)CC3)cc2c1 (stereo not shown) [Compound 165, 3-[4-[(5-Amidino-2-benzofuranyl)carbonylamino]cyclohexyl]propionic acid]
- IC50: 10 nM

SMILES: N=C(N)c1ccc2oc(C(=O)N[C@H]3CC[C@H](CCC(=O)O)CC3)cc2c1 [Compound 167, trans-3-[4-[(5-amidino-2-benzofuranyl)carbonylamino]cyclohexyl]propionic acid]
- IC50: 6 nM

SMILES: N=C(N)c1ccc2oc(C(=O)N[C@H]3CC[C@H](OCC(=O)O)CC3)cc2c1 [Compound 179, trans-[4-[(5-Amidino-2-benzofuranyl)carbonylamino]cyclohexyloxy]acetic acid]
- IC50: 10 nM

SMILES: Cc1c(C(=O)N[C@H]2CC[C@H](OCC(=O)O)CC2)oc2ccc(C(=N)N)cc12 [Compound 182, trans-[4-[(5-Amidino-3-methyl-2-benzofuranyl)carbonylamino]cyclohexyloxy]acetic acid]
- IC50: 30 nM

SMILES: COc1c(C(=O)N[C@H]2CC[C@H](OCC(=O)O)CC2)oc2ccc(C(=N)N)cc12 [Compound 184, trans-[4-[(5-Amidino-3-methoxy-2-benzofuranyl)carbonyl-amino]cyclohexyloxy]acetic acid]
- IC50: 150 nM

SMILES: CCOC(=O)CCN1CCC(NC(=O)c2cc3cc(C(=N)N)ccc3o2)CC1 [Compound 191, Ethyl 3-[4-[(5-amidino-2-benzofuranyl)carbonylamino]-piperidino]propionate]
- IC50: 160 nM

SMILES: N=C(N)c1ccc2oc(C(=O)NC3CCN(CCC(=O)O)CC3)cc2c1 [Compound 192, 3-[4-[(5-amidino-2-benzofuranyl)carbonylamino]piperidino]propionic acid]
- IC50: 20 nM

SMILES: CCOC(=O)CCN1CCC(OC(=O)c2cc3cc(C(=N)N)ccc3o2)CC1 [Compound 193, Ethyl 3-[4-[(5-amidino-2-benzofuranyl)carbonyloxy]piperidino]propionate]
- IC50: 320 nM

SMILES: N=C(N)c1ccc2oc(C(=O)N[C@H]3CC[C@H](NCC(=O)O)CC3)cc2c1 [Compound 195, trans-[4-[(5-Amidino-2-benzofuranyl)carbonylamino]cyclohexylamino]acetic acid]
- IC50: 20 nM

SMILES: CCOC(=O)CN(CC(=O)OCC)[C@H]1CC[C@H](NC(=O)c2cc3cc(C(=N)N)ccc3o2)CC1 [Compound 202, Diethyl trans-[4-[(5-amidino-2-benzofuranyl)carbonylamino]cyclohexylamino]diacetate]
- IC50: 230 nM

SMILES: CC(C)(C)OC(=O)CN(CC(=O)OC(C)(C)C)[C@H]1CC[C@H](NC(=O)c2cc3cc(C(=N)N)ccc3o2)CC1 [Compound 203, di-t-butyl trans-[4-[(5-amidino-2-benzofuranyl)-carbonylamino]cyclohexylamino]diacetate]
- IC50: 1750 nM

SMILES: N=C(N)c1ccc2oc(C(=O)N[C@H]3CC[C@H](N(CC(=O)O)CC(=O)O)CC3)cc2c1 [Compound 204, trans-[4-[(5-Amidino-2-benzofuranyl)carbonylamino]cyclohexylamino]diacetic acid]
- IC50: 9 nM

SMILES: CCOC(=O)CO[C@H]1CC[C@H](NC(=O)c2cc3ccc(C(=N)N)cc3[nH]2)CC1 [Compound 209, Ethyl trans-[4-[(6-Amidino-2-indolyl)carbonylamino]cyclohexyloxy]acetate]
- IC50: 100 nM

SMILES: N=C(N)c1ccc2cc(C(=O)N[C@H]3CC[C@H](OCC(=O)O)CC3)[nH]c2c1 [Compound 212, trans-[4-[(6-Amidino-2-indolyl)carbonylamino]cyclohexyloxy]acetic acid]
- IC50: 30 nM

SMILES: N=C(N)c1ccc2cc(C(=O)N[C@H]3CC[C@H](OCC(=O)O)CC3)sc2c1 [Compound 232, trans-[4-[(6-Amidinobenzo[b]thien-2-yl)carbonylamino]cyclohexyloxy]acetic acid]
- IC50: 20 nM

SMILES: N=C(N)c1cnc2oc(C(=O)Nc3ccc(OCC(=O)O)cc3)cc2c1 [Compound 239, 4-(5-Amidinofuro[2,3-b]pyridine-2-carbonylamino)-phenoxyacetic acid]
- IC50: 10 nM

SMILES: N=C(N)c1cnc2oc(C(=O)Nc3ccc(OCC(=O)O)nc3)cc2c1 [Compound 246, 5-(5-Amidinofuro[2,3-b]pyridine-2-carbonylamino)-2-pyridyloxyacetic acid]
- IC50: 30 nM

Reference: patent US5635527A, “Carboxylic acid compound having condensed ring, salt thereof and pharmaceutical use thereof” (The Green Cross Corporation, priority 1994, dated 1997)
